Results reported in US8410045B2, “Camptothecin-peptide conjugates and pharmaceutical compositions containing the same” (Drais Pharmaceuticals, Inc., priority 2006, dated 2013).
Entries after “also recorded” stand apart in the source; their conditions may differ. Where a name gives a salt, the structure may show the parent alone. Marks after values point to notes of the source that are not given here.

Legend:
[1] = In vitro cytotoxicity (WST-1 cell viability); assay type: cell-based, human; details: 1 h exposure + 48 h post-incubation; read-out: In vitro cytotoxicity IC50 (μM) NCI-H460
Method: Cytotoxic evaluation was performed by seeded cells for 24 h prior to the addition of the therapeutic compound. Cells were incubated for 48 h (37° C.) with different dilutions of the therapeutic compound. Cell viability was then assessed using the WST-1 assay (Roche). The results are expressed as mean cytotoxic concentrations (IC50 value or molar concentration that inhibits 50% of cell viability) that were estimated from sigmoid regression, using Graph Pad Prism 3.02 software.
NCI-H460 (ATCC#: HTB-177): human epithelial lung carcinoma cells. Cells were cultured in RPMI 1640+glutamax and 10% of fetal bovine serum. Cells were plated at a density of 10,000 cells/well in 96-well plates.

NCI-H460 lung carcinoma = experiment: Antitumor efficacy in NCI-H460 lung carcinoma model in nude mice; details: Table 9, 25 μmol/kg
[2] = dog; F. Lavelle et al., Seminar in Oncology (1996); cited from earlier work
physchem = details: water
[3] = M. Horikawa, Pharmaceutical Res. 2002; cited from earlier work
[4] = Toxicity study in the beagle dog following intravenous infusion; details: dog, 30 mg/kg
Method: Adult female and male beagle dogs were individually housed with free access to tap water. A pellet diet was distributed daily.
Dogs (1 dog for each drug and dose) were infused intravenously through the cephalic or saphenous vein. These intravenous infusions were made using a single-use catheter (Intraflon®) and a plastic syringe connected to a syringe pump. During the injection, the animals were restrained in a hammock.
Conjugates were dissolved in water for injection (10% of final volume) and diluted with 0.9% NaCl to their final concentration. The volume administered to each animal was adjusted according to body weight.
Clinical signs, hematological and intestinal toxicities were monitored during a period of 15 days after infusion. Each animal was checked at least twice a day for mortality or signs of morbidity.
The body weight of each animal was recorded on the day −1, 4, 10 and 13.
Peripheral blood samples were taken into EDTA tubes for the determination of following parameters on days −1, 5, 11 and 14: erythrocytes, hemoglobin, mean cell volume, packed cell volume, mean cell hemoglobin concentration, mean cell hemoglobin, thrombocytes, leucocytes, differential white cell count with cell morphology.

[5] = system: HCT 116 human colorectal carcinoma tumor

SMILES | IC50 [1] | In vivo efficacy Optimal T/C % (NCI-H460 lung carcinoma) | In vivo efficacy TGI % (NCI-H460 lung carcinoma) | In vivo efficacy Optimal T/C % (NCI-H460 lung carcinoma; listed as DPV1047-BCH-SN38.HCl) | Maximal Tolerated Dose (MTD) [2] | solubility (physchem) | excreted into bile [3] | body weight loss ([4]; 20 min infusion) | white blood cells depletion ([4]; Day 5) | Reduction in WBC at D5 (%) ([4]; i.v. infusion) | Toxic signs Day 1 ([4]; i.v. infusion) | Toxic signs Following Days ([4]; i.v. infusion) | TGI (100-T/C %) ([5]; Table 5, Q1D5, 18 (cumulative 90) μmol/kg) | Minimal T/C (%) ([5]; iv)
CCc1c2c(nc3ccc(OC(=O)[C@H]4CC[C@H](CNC(=O)C5CCC(CN6C(=O)CC(SC[C@H](N)C(=O)N[C@H](C(=O)N[C@@H](CCCCN)C(=O)N[C@@H](CCCNC(=N)N)C(=O)NCC(=O)N[C@@H](CC(C)C)C(=O)N[C@@H](CCCCN)C(=O)N[C@@H](CC(C)C)C(=O)N[C@@H](CCCNC(=N)N)C(=O)N[C@@H](Cc7c[nH]cn7)C(=O)N[C@H](C(=O)N[C@@H](CCCNC(=N)N)C(=O)N7CCC[C@H]7C(=O)N[C@@H](CCCNC(=N)N)C(=O)N[C@H](C(=O)N[C@H](C(=O)N[C@@H](CCCNC(=N)N)C(=O)N[C@@H](CCSC)C(=O)N[C@@H](CC(=O)O)C(=O)N[C@H](C(=O)O)C(C)C)[C@@H](C)O)C(C)C)C(C)C)C(C)C)C6=O)CC5)CC4)cc13)-c1cc3c(c(=O)n1C2)COC(=O)[C@]3(O)CC (single isomer, unassigned) [DPV1047-BCH-SN38•HCl] | 173 µM | 22.9% | 77.1% | 18.4% |  |  |  |  |  |  |  |  |  | 
CCc1c2c(nc3ccc(OC(=O)N4CCC(N5CCCCC5)CC4)cc13)-c1cc3c(c(=O)n1C2)COC(=O)[C@]3(O)CC [irinotecan, reference compound] |  |  |  |  | 30 mg/kg | ≤ 2500 µg/mL | > 26% | −8.5% | 92% | −92% | Ptyalism; also recorded: Liquid feces; also recorded: Vomit; also recorded: Loss of balance; also recorded: Tremors (marked) | Vomit: D4 | 90*** % | 10%
